In article PMC7665585, “Antidepressive effect of an inward rectifier K^+ channel blocker peptide, tertiapin-RQ” (PLoS ONE, 2020):
Bridge positions count the residues as written; N and C are the ends. Peptide text beside a SMILES is read from it.

Assays:
[1] = Chemical stability in mouse serum by HPLC; type: in vitro ADME; settings: 33.0 μM peptide mixed with equal volume of mouse serum, 37°C, 30 min; cation-exchange HPLC (HiTrap-SP), A230 nm
Description: For the examination of the chemical stability, the peptide was analyzed with high-performance liquid chromatography (HPLC, JASCO, Tokyo, Japan) using a cation-exchange column (HiTrap-SP, Cytiva). TPN-RQ 33.0 μM, which was mixed with an equal volume of PBS or mouse serum, was analyzed with HPLC immediately after mixing or after incubation at 37°C for 30 min. Peptides were eluted with a gradient of NaCl from 200 to 2,000 mM in 10 mM Tris-HCl (pH 7.4), monitoring A230 nm with a UV detector (JASCO).

[2] = system: Male ICR mice; assay: Tail suspension test (TST); type: in vivo, mouse; settings: 750 pmole i.c.v., 30 min before test, 5 min recording
Description: We performed mouse behavioral experiments in accordance with our previous study. Male ICR mice (n = 199 in total) aged 5 weeks old were purchased from Shimizu Laboratory Supplies (Kyoto, Japan) and maintained in an animal facility for 7–12 days. They had free access to food and water and were kept in a 12-h light/dark cycle (08:00–20:00). Experiments were carried out between 11:00 and 17:00 in a quiet and air-conditioned experimental room, to which mice were habituated for 30–60 min before each experiment. Animal experiments were performed in accordance with the guidelines of the Physiological Society of Japan and were approved by the Committee for Animal Experiments of Kurashiki University of Science and the Arts. Peptides were dissolved in phosphate-buffered saline (PBS). Peptides were injected intracerebroventricularly (i.c.v.) 30 min before behavioral tests (typically 5 μL/mouse), according to a previous study. The mouse was placed into an anesthetizing jar, to which isoflurane (0.2 mL) was added immediately before. After confirming that the mouse was deeply anesthetized we injected the peptide into the right cerebral ventricle over 30 seconds and the injection needle was kept for 1 min after the injection (i.c.v. coordinates: 0 mm caudal to bregma, 1.0 mm lateral to the midline, and 3.5 mm below the skull). The mouse was placed in a cage set on a heating pad (approximately 33°C) for a few minutes until it spontaneously started to move, and then it was put back into its home cage. Each animal was used only once, except for the wheel running test, which was carried out immediately after the elevated plus-maze.
The tail suspension test (TST) was performed in accordance with the method reported previously. The mouse was hung on a hook using adhesive tape placed 2 cm from the extremity of its tail 50 cm above a table. The amount of time spent immobile was recorded for 5 min.

[3] = system: Male ICR mice; assay: Elevated plus-maze (EPM); type: in vivo, mouse; settings: i.c.v., 5 min
Description: We performed mouse behavioral experiments in accordance with our previous study. Male ICR mice (n = 199 in total) aged 5 weeks old were purchased from Shimizu Laboratory Supplies (Kyoto, Japan) and maintained in an animal facility for 7–12 days. They had free access to food and water and were kept in a 12-h light/dark cycle (08:00–20:00). Experiments were carried out between 11:00 and 17:00 in a quiet and air-conditioned experimental room, to which mice were habituated for 30–60 min before each experiment. Animal experiments were performed in accordance with the guidelines of the Physiological Society of Japan and were approved by the Committee for Animal Experiments of Kurashiki University of Science and the Arts. Peptides were dissolved in phosphate-buffered saline (PBS). Peptides were injected intracerebroventricularly (i.c.v.) 30 min before behavioral tests (typically 5 μL/mouse), according to a previous study. The mouse was placed into an anesthetizing jar, to which isoflurane (0.2 mL) was added immediately before. […]
The elevated plus maze (EPM) apparatus consisted of four arms set in a cross pattern from a neutral central square (6 × 6 cm). […] The total number of entries to open arms and time spent in the open arms was measured. […]

CC[C@H](C)[C@@H]1NC(=O)[C@H](CCCNC(=N)N)NC(=O)[C@H](CCCNC(=N)N)NC(=O)[C@H](CC(N)=O)NC(=O)[C@@H]2CSSC[C@@H](C(=O)NCC(=O)N[C@@H](CCCCN)C(=O)N[C@@H](CCCCN)C(N)=O)NC(=O)[C@H](CCCCN)NC(=O)[C@H](CCCCN)NC(=O)[C@H](Cc3c[nH]c4ccccc34)NC(=O)[C@H](CSSC[C@H](NC(=O)[C@H](CC(C)C)NC(=O)[C@H](C)N)C(=O)N[C@@H](CC(N)=O)C(=O)N2)NC(=O)[C@H](CCC(N)=O)NC(=O)[C@H](Cc2c[nH]cn2)NC(=O)[C@@H]2CCCN2C(=O)[C@H]([C@@H](C)CC)NC1=O [Peptide 2, TPN-RQ] (H-ALCNCNRRIIPHQCWKKCGKK-NH2; disulfide 3-14, 5-18)
chemical stability in mouse serum (HPLC peak height and retention time) [1]: No changes in the peak height or retention time

CC[C@H](C)[C@@H]1NC(=O)[C@H](CCCNC(=N)N)NC(=O)[C@H](CC(N)=O)NC(=O)[C@@H]2CSSC[C@@H](C(=O)NCC(=O)N[C@@H](CCCCN)C(=O)N[C@@H](CCCCN)C(N)=O)NC(=O)[C@H](CCCCN)NC(=O)[C@H](CCCCN)NC(=O)[C@H](Cc3c[nH]c4ccccc34)NC(=O)[C@H](CSSC[C@H](NC(=O)[C@H](CC(C)C)NC(=O)[C@H](C)N)C(=O)N[C@@H](CC(N)=O)C(=O)N2)NC(=O)[C@H](CCC(N)=O)NC(=O)[C@H](CC(C)C)NC(=O)[C@@H]2CCCN2C(=O)[C@H]([C@@H](C)CC)NC(=O)[C@H]([C@@H](C)CC)NC1=O [Peptide 3, TPN-LQ] (H-ALCNCNRIIIPLQCWKKCGKK-NH2; disulfide 3-14, 5-18; N-terminus and C-terminus assumed)
immobile time in TST [2]: decreased the immobile time
number of entries to the open arms in EPM [3]: decreased
time spent in the open arms in EPM [3]: decreased
